Reference: patent US12637500B2, “Tumor antigen peptide” (Niigata University, priority 2015, dated 2026)

Tests used:
[1] = tested on: human PBMC; assay: CTL induction from PBMC by peptide stimulation; assay type: cell-based; conditions: peptide 10 μg/mL, PBMC of HLA-A24-positive healthy controls, method of Example 5 (1)
Experimental: Peripheral blood was collected using a heparin-containing 50 ML syringe from HLA-A24-positive healthy controls who had given informed consent. The whole blood was layered in a 50 mL tube (Falcon) to which 13 mL of Lymphoprep (Nycomed) had been added, and subjected to centrifugation at 2000 rpm for 30 minutes. A PBMC layer precipitated on the Lymphoprep layer was recovered using a pipette and washed three times with PBS, thus giving human PBMC.
About 3×10^7 cells/plate of the human PBMC separated above and 10 mL of Hepes-modified RPMI1640 medium (Sigma) containing 2-mercaptoethanol (final concentration 55 μM), L-glutamine (final concentration 2 mM), as antibiotics streptomycin (final concentration 100 μg/mL) and penicillin G (final concentration 100 U/mL), and 5% serum component were placed in each well of a […] for cell culture (BECTON DIKINSON), and suspension cultured. PVT1-derived natural antigen peptide of SEQ ID No: 1 (hereinafter referred to as ‘HF10’) or SUV39H2-derived natural antigen peptide of SEQ ID No: 2 (hereinafter referred to as ‘RF8’) were added thereto at a concentration of 10 μg/mL. After culturing was carried out for 2 days, IL-2 was added at a final concentration of 50 U/mL, and culturing was carried out for a further 2 weeks. […]

[2] = tested on: HLA-A24; assay: HLA-A24 binding assay (MFI shift on T2-A24 cells); set-up: species or system human; conditions: for binding to HLA-A24: T2-A24 cells, MFI shift
Experimental: T2-A24 cells, which are HLA-A24-expressing T2 cells, were preincubated in a CO2 incubator at 27° C. overnight. The cells collected were resuspended in Opti-MEM and plated on a round bottom 96 well plate (Corning) with about 1×10^5 cells/200 μL per well. A subject peptide was added at concentrations of 0.33 μM, […], and 10 μM, and incubation was carried out in a CO2 incubator at 27° C. for 3 hours and subsequently at 37° C. for 2.5 hours. Subsequently, the cells were subjected to centrifugation (380 g, 5 minutes) as they were on the plate, resuspended in 100 μL of a C7709A2 monoclonal antibody-producing hybridoma culture supernatant, and incubated on ice for 45 to 60 minutes. The cells were washed with ice-cooled PBS and then incubated together with an FITC-conjugated goat anti-mouse IgG antibody (KPL, Gaithersburg, MD) on ice for 30 minutes. The cells were washed with ice-cooled PBS as they were on the plate, then resuspended in 1% formaldehyde and PBS, and analyzed by a FACScan (BD Biosciences, Mountain View, CA), and the mean fluorescence intensity (MFI) shift (fluorescence increase as a result of stabilization by binding peptide) due to an increase in the amount of stable HLA-A24 molecules was thus measured. A cell treated with nonbinding peptide GK12 (concentration 0 to 10 μM) has a constant MFI and it was used as a negative control.
The MFI shift (AMFI) for a peptide concentration of 1 μM was measured for 26 types of randomly selected peptides of the natural peptides obtained in Example 1 above. A score was also calculated for these peptides using NetMHC3.4, and correlation with ΔMFI was investigated.

Row | Substance | CTL induction [1] | binding to HLA-A24 [2] | MFI of T2-A24 cells treated with peptide ([2]; concentration 0 to 10 μM, negative control peptide)
1 | RYGNVSHF [SEQ ID No: 2, SUV39H2-derived natural antigen peptide] | A plurality of CTL clones were induced | high binding | 
2 | GK12: synthetic nonbinding peptide used as negative control for HLA-A24 binding (GYISPYFINTSK) [reference compound] |  |  | constant MFI
3 | HWNDTRPAHF [SEQ ID No: 1, PVT1-derived natural antigen peptide] | A plurality of CTL clones were induced | high binding | 
4 | VYTYIQSRF [SEQ ID No: 5, DYRK4-derived natural peptide] |  | high binding | 
5 | IFQGNVHNF [SEQ ID No: 4, SNRNP40-derived natural peptide] |  | high binding | 
6 | KYVKDFHKF [SEQ ID No: 3, ZNF724P-derived natural peptide] |  | high binding | 
